pIC50: −log10 of the molar value.
Key:
[1] = target: Cholinesterase (Equus caballus, UniProt P81908); assay: Inhibition of horse BuChE using butyrylthiocholine as substrate preincubated with enzyme for 30 mins followed by substrate addition by Ellman's method
[2] = target: Acetylcholinesterase (Electrophorus electricus, UniProt O42275); assay: Inhibition of electric eel AChE using acetylthiocholine as substrate preincubated with enzyme for 30 mins followed by substrate addition by Ellman's method
Acetylcholinesterase, sequence (O42275 whole entry): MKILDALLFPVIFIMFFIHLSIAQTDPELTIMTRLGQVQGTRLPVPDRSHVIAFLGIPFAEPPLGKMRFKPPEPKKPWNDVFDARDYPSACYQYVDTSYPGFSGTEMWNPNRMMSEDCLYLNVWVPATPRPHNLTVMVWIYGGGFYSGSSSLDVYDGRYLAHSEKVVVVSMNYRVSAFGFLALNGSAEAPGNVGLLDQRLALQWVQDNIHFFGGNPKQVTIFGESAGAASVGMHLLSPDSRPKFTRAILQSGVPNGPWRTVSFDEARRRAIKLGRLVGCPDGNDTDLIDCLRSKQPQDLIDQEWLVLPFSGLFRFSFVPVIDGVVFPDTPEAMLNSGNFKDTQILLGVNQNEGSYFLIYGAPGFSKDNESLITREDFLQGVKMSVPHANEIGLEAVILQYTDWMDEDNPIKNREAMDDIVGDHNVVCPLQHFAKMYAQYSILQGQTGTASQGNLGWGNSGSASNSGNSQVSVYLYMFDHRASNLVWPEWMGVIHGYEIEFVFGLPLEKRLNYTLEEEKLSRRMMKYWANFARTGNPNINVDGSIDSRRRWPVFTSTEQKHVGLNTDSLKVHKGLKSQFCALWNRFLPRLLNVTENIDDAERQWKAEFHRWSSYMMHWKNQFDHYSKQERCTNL

[3] = Selectivity index, ratio of IC50 for horse BuChE to IC50 for electric eel AChE

Cholinesterase, sequence (P81908 whole entry): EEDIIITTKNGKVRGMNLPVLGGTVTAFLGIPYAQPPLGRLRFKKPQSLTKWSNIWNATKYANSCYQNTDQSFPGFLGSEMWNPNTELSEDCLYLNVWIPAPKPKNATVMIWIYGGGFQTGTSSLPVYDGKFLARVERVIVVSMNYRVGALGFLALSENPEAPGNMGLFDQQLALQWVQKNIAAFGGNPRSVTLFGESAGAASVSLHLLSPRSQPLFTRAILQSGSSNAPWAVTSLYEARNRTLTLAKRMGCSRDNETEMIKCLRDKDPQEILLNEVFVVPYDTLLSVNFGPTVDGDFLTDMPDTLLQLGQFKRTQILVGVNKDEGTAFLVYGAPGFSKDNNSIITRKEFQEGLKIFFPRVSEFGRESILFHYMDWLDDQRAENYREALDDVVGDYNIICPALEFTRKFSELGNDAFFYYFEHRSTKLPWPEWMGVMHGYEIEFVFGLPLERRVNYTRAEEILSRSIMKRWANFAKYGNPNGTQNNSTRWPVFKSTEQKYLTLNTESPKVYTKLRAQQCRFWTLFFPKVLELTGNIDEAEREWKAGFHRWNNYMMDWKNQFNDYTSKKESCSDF

Compound | pIC50 [1] | pIC50 [2] | Ratio IC50 [3]
COC1=C(Br)[C@H](O)[C@@]2(C=C1Br)CC(C(=O)NCCCOc1c(Br)cc(C[C@H](N)C(=O)O)cc1Br)=NO2 | < 4.00 | 4.70 | > 5
COC1=C(Br)[C@H](O)[C@@]2(C=C1Br)CC(C(=O)NCCc1cc(Br)c(O)c(Br)c1)=NO2 | 4.97 | 5.24 | 1.9
COC1=C(Br)[C@H](O)[C@@]2(C=C1Br)CC(C(N)=O)=NO2 | 4.81 | 5.48 | 4.6
COC1=C(Br)[C@H](O)[C@@]2(C=C1Br)CC(C(=O)NCCCCCNC(=N)N)=NO2 [APLYSINAMISINE II] | 4.99 | 6.11 | 13
COC1=C(Br)[C@H](O)[C@@]2(C=C1Br)CC(C(=O)NCCc1cc(Br)c(OCCC(C(=O)[O-])[N+](C)(C)C)c(Br)c1)=NO2 (stereo not given in full) | 5.00 | 5.32 | 2.1

Source: ChEMBL document CHEMBL5137121, “Spiroisoxazoline Inhibitors of Acetylcholinesterase from Pseudoceratina verrucosa. Quantitative Chiroptical Analysis of Configurational Heterogeneity, and Total Synthesis of (±)-Methyl Purpuroceratate C” (J Nat Prod, 2022)
